Legend:
rats = settings: oral or intraperitoneal route, preliminary
NT-3 = test: Two-site ELISA of growth factor protein in rat brain and spinal cord: NT-3; format: in vivo, F344 rats
Experimental: (§1) Adult female F344 rats were given either AIT-082 (doses: 30 mg/kg/day or a higher dose of 30 mg/ml (˜3,000 mg/kg/day); n=6 rats per group) in their drinking water, or water alone, as a vehicle for control. The duration of the study was seven days, at which time the rats were anesthesized and perfused with ice-cold saline. The brains of the rats were rapidly removed. The brains were placed on a chilled glass plate and dissected into the following regions: basal forebrain, frontal cortex, parietal cortex, cerebellum, spinal cord, and hippocampal formation. Tissues were stored at −70° C. until assayed in a specific two-site ELISA for either NGF, BDNF, NT-3, or GNDF.
(§2) The results are shown in FIGS. 45 (BDNF), 46 (NT-3), 47 (GDNF) and 48 (NGF). For the results shown in FIGS. 45-48, animals were given only water (VEH, n=6) or water with AIT-082 at either 30 mg/kg/day (n=6) or 30 mg/ml (n=6) for seven days. The levels of each growth factor were determined in the frontal cortex (F. Cor.), parietal cortex (P.Cor.), hippocampal formation (Hipp.), basal forebrain (B.F.), cerebellum (Cer.), or spinal cord (Cord) using a specific two-site ELISA for each growth factor.
(§3) Adult female rats were given AIT-082 (30 mg/kg/day) in their drinking water or drinking water alone (n=6 for each group) for seven days prior to receiving a bilateral fimbria fornix transection (FFT).
(§4) The results are shown in FIGS. 49 (BDNF), 50 (NT-3), 51 (GDNF) and 52 (NGF). For the results shown in the Figures, animals were given only water (VEH, n=3) or water with AIT-082 at 30 mg/kg/day (n=3). Levels of the growth factor were determined in frontal cortex (F.Cor.), parietal cortex (P.Cor.), hippocampal formation (Hipp.), basal forebrain (B.F.), cerebellum (Cer.), or spinal cord (Cord) using a specific two-site ELISA for each growth factor.
Aged female Fischer 344 rats (obtained from National Institute on Aging; 24 months on arrival) were given AIT-082 (30 mg/kg/day) in their drinking water or drinking water alone, for a period of 30 days (n=5 rats per group). After 30 days, animals were sacrificed and fresh tissues were dissected as described above. An additional set of young animals (n=5) was processed along with the aged rats for comparison.
Results are shown in FIGS. 53 (BDNF), 54 (NT3), 55 (GDNF), and 56 (NGF). As described above, for the results shown in these figures, aged rats (24 months of age) were given water (vehicle control; n=5) or water with AIT-082 (at 30 mg/kg/day; n=5 for 30 days). A separate group of young untreated animals was also included (n=5). Levels of each growth factor were determined in frontal cortex (F.Cor.), parietal cortex (P. Cor.), hippocampal formation (Hipp.), basal forebrain (B.F.), cerebellum (Cer.) or spinal cord (Cord) using a specific two-site ELISA.

adenosine receptor = test: Receptor ligand binding in vitro, adenosine
Experimental: AIT-082 was evaluated for its ability to inhibit ligand binding to 38 isolated receptors.

mice [1] = settings: oral or intraperitoneal route, preliminary
NGF [2] = test: Two-site ELISA of growth factor protein in rat brain and spinal cord: NGF; format: in vivo, F344 rats
Experimental: as §1, §2, §3
as §4, with “For the results shown in the Figures, animals were given only water (VEH, n=3) or water with AIT-082 at 30 mg/kg/day (n=3).” left out, “factor. […]” for “factor.”
Results are shown in FIGS. 53 (BDNF), 54 (NT3), 55 (GDNF), and 56 (NGF). […] Levels of each growth factor were determined in frontal cortex (F.Cor.), parietal cortex (P. Cor.), hippocampal formation (Hipp.), basal forebrain (B.F.), cerebellum (Cer.) or spinal cord (Cord) using a specific two-site ELISA.

[3] = tested on: cultured neurons from rat cerebral cortex; test: NMDA-induced toxicity in cultured rat cortical neurons, astrocyte conditioned medium; format: cell-based; settings: CM from astrocytes treated 6 hours with AIT-082
Experimental: In these experiments, cultured neurons were prepared from rat cerebral cortex. In these cultures the NMDA pulse (100 μM for 10 min) provoked about 80% neuronal death (measured by Trypan blue cell staining or LDH activity). Separately, cultured astrocytes were treated for 6 hours with AIT-082. Then, the medium containing the drug was replaced with fresh medium without the drug and the astrocyte cultures were maintained in this medium for the next 24 hours. This medium represented the CM and was added to neurons soon after the toxic pulse with NMDA. The addition of CM partly counteracted the toxic effects caused by NMDA, reducing the neuronal damage by about 50%. If the medium was boiled for 20 min at 100° C. prior to addition to NMDA-damaged neurons, it completely lost the protective activity. […] To verify whether the neuroprotection caused by AIT-082 was ascribable to the production of TGFβ2 or NGF, antibodies to TGFβ2 or to NGF (100 ng/ml) were added together with CM.
Conversely, when DPCPX (100 nm) was added to astrocyte cultures together with AIT-082, the neuroprotective effect of the resulting CM deriving from the culture of the astrocytes with AIT-082 was reduced by only 20%, as compared to the neuroprotective effect of CM derived from astrocytes exposed to AIT-082 alone (assumed as equal to 100%).

NGF [4] = test: Summary of effects on growth factor mRNA and protein (Table R): NGF; parameters: key: ± = mRNA; + = protein; nt = not tested; settings: Aged Brain
Text: The constellation of effects of AIT-082 on production of mRNA encoding growth factors and on production of growth factor proteins is shown in Table R. The results summarized in […] show both transcriptional and translational effects on growth factors that are in the categories of neurotrophins, pleiotrophins, members of the S100 family of EF hand calcium binding proteins, and members of the TGFβ superfamily. As indicated, effects have been shown at both the mRNA (transcriptional) and protein (translational) levels.

[5] = 79 different test systems
mice [6] = test: Elevated Plus maze (anxiety); format: in vivo
Text: A Plus maze was constructed of black plexiglass consisting of two opposite-facing open arms (30×5 cm, L×W) and two opposite facing closed arms (30×5×15 cm, L×W×H). The walls of the closed arms were clear plexiglass and the four arms were connected by a central area 5×5 cm. The entire Plus maze was mounted on a base 38 cm above the floor. Testing consisted of placing the subject at one end of one of the open arms. The time the subject took to leave the start position (the first 10 cm of the open arm) was recorded. The time it took for the subject to enter halfway into one of the closed arms was also recorded. When the subject arrived at the half-way point in the closed arm, the three-minute test session began. During the three-minute test session, the number of times the subject entered the open arms was recorded. An entry was defined as placing at least two paws onto the platform of the open arm.

38 isolated receptors = test: Receptor ligand binding in vitro (Nova Labs)

## O=C(CCn1cnc2c(=O)[nH]cnc21)Nc1ccc(C(=O)O)cc1 [AIT-082, N-4-carboxyphenyl-3-(6-oxohydropurin-9-yl)propanamide]
rats
  LD50: > 3000 mg/kg
NT-3; FFT-lesioned rats, 30 mg/kg/day, basal forebrain
  NT-3 protein levels compared to vehicle controls: threefold
NT-3; aged rats, 30 mg/kg/day 30 days, hippocampus
  NT-3 protein levels: restored NT-3 protein levels to those of young animals
NT-3; intact adult rats, 30 mg/kg/day, cerebellum
  NT-3 protein levels: increased NT-3 levels in cerebellum over vehicle controls
NT-3; intact adult rats, 3000 mg/kg/day, cerebellum
  NT-3 protein levels: absent
Adenosine receptor
  binding to the adenosine receptor: does not bind
Mice [1]
  LD50: > 3000 mg/kg
NGF [2]; FFT-lesioned rats, 30 mg/kg/day
  NGF protein levels: No significant increases
NGF [2]; aged rats, 30 mg/kg/day 30 days, any brain region
  NGF protein levels: no effect
NGF [2]; intact adult rats
  NGF protein levels: No changes
[3]
  reduction of neuronal damage caused by NMDA: about 50%
NGF [4]
  NGF, effect on mRNA/protein production: ±
[5]
  toxicity in standard profile: absence of any toxicity
Mice [6]; 0.005 to 0.5 mg/kg
  anxiogenic effect in Plus maze: not observed
Mice [6]; 30 mg/kg
  anxiogenic effect in Plus maze: slight anxiogenic effect
Mice [6]; 60 mg/kg
  anxiogenic effect in Plus maze: not observed
38 isolated receptors
  inhibition of ligand binding: no activity

— patent US6338963B1, “Use of carbon monoxide dependent guanylyl cyclase modifiers to stimulate neuritogenesis” (NeoTherapeutics, Inc., priority 1994, dated 2002)
